# Where two headings read alike, the source gives them in different places.
# Columns and labels:
# [1] = system: A. cepa root cells; conditions: for DNA damage as chromosomal aberrations in Allium root cells: 10.0 µM
# Protocol: To detect micronuclei and chromosomal aberrations six equal-sized pre-germinated young bulbs per sample were exposed for 24 h to sample dilutions. The bulbs dedicated to the micronuclei test underwent an additional treatment in the saline solution for 44 h of recovery time to cover two rounds of mitosis so that damage induced in chromosomes during mitosis to be visible as micronuclei in interphase cells. Then all the roots were fixed in acetic acid and ethanol (1:3) for 24 h and lastly stored in 70% ethanol. The negative control was DMSO in Rank’s solution (the dose of DMSO corresponding to volume of samples) and positive control was maleic hydrazide (10^−2 M, 6 h exposure). […] All experiments were performed in duplicate.
# [2] = system: A. flavus; test: microbe, parasite or virus in culture; assay type: cell-based, Aspergillus flavus
# [3] = system: S. typhimurium TA98 and TA100 strains; test: Ames test, overall mutagenicity verdict in bacteria; conditions: TA98 and TA100, -S9 and +S9
# [4] = system: A. cepa; test: A. cepa toxicity test (root length); assay type: in vivo, Allium cepa; conditions: in vivo
# Protocol: A. cepa toxicity test: Twelve equal-sized young onion bulbs were exposed for 96 h in the dark to different concentrations of compounds dissolved in DMSO, changing the sample solution every day. […] Root macroscopic parameters such as turgescence, consistency, change in color and root tip shape, were used as toxicity indexes.
# [5] = system: aflatoxin accumulation by A. flavus; test: microbe, parasite or virus in culture; assay type: cell-based, Aspergillus flavus
# [6] = system: Hs27 cells; test: Cytotoxicity assay (CellTiter 96 AQueous One) on Hs27; assay type: cell-based, human; conditions: for viability: Hs27, 24 h, dose 0 = 100.00, read-out: Growth inhibition data; for GI50: Hs27 cells, 24 h treatment
# Protocol: The best antifungal and/or antiaflatoxigenic compounds were tested to determine their cytotoxic activity against human normal cell lines deriving from lung (HFL1, ATCC and CCL-153), skin (Hs27, ATCC, CRL1634) and colon (Crl1790, ATCC, CCD 841 CoN) and a cell line deriving from a hematological tumor (U937, ATCC and CRL-3253). These different cell lines have been chosen to simulate the different human exposition routes to pesticide. Cell culture conditions have been previously reported. Compound cytotoxicity was determined using CellTiter 96® AQueous One Solution Cell Proliferation Assay (Promega Corporation, Madison, WI, USA). The very detailed protocol was described by Bartoli et al.. In brief, cells were seeded in a 96-well plate at a density of 5000 cells/well and after 24 h cells were treated with different concentrations of the compounds (0.5–1–5–10–50–100 µM). After the treatment period (24 h), the CellTiter Reagent was added to each well (20 µL/well) and the plate incubated for 4 h at 37 °C. The plate was then read at 485 nm in a multiwell plate reader (TECAN SpectraFluor Plus, Männedorf, Switzerland).
molecule,measurement,setting,value
O=Cc1ccc2c(c1)C(=O)c1ccccc1C2=O [2‐Formylanthraquinone],DNA damage as chromosomal aberrations in Allium root cells,[1],induced DNA damage as chromosomal aberrations
same,inhibition at 100 µM,"[2]; Aspergillus flavus, 100 µM, read-out: G.I. (%) (A. flavus growth inhibition)",58%
NC(=S)NNC(=O)c1ccc2c(c1)C(=O)c1ccccc1C2=O [Anthraquinone‐2‐carbonyl‐1‐thiosemicarbazide],G.I. (%) (A. flavus growth inhibition),[2]; 100 µM,"58,0%"
same,mutagenicity in bacteria,[3],slight mutagenic activity
O=C(O)c1ccc2c(c1)C(=O)c1ccccc1C2=O [Anthraquinone‐2‐carboxylic acid],DNA damage as chromosomal aberrations in Allium root cells,[1],induced DNA damage as chromosomal aberrations
same,effect on A. cepa root length,[4],reduction of A. cepa root length
same,A.I. (%) (aflatoxin accumulation inhibition),[5]; 50 µM,"56,0%"
same,A.I. (%) (aflatoxin accumulation inhibition),[5]; 100 µM,"80,0%"
CN(N=CC=Cc1ccccc1)C(N)=S [Cinnamaldehyde 2‐methyl thiosemicarbazone],DNA damage as chromosomal aberrations in Allium root cells,[1],induced DNA damage as chromosomal aberrations
same,A.I. (%) (aflatoxin accumulation inhibition),[5]; 100 µM,"64,0%"
"CN(C)C(=S)NN=CC=Cc1ccccc1 [Cinnamaldehyde 4,4‐dimethyl thiosemicarbazone]",effect on A. cepa root length,[4],reduction of A. cepa root length
same,A.I. (%) (aflatoxin accumulation inhibition),[5]; 50 µM,100%
same,A.I. (%) (aflatoxin accumulation inhibition),[5]; 100 µM,100%
same,mutagenicity in bacteria,[3],slight mutagenic activity
CCCCC(=NNC(N)=S)c1ccccc1 [Valerophenone thiosemicarbazone],DNA damage as chromosomal aberrations in Allium root cells,[1],induced DNA damage as chromosomal aberrations
same,G.I. (%) (A. flavus growth inhibition),[2]; 100 µM,"54,0%"
same,A.I. (%) (aflatoxin accumulation inhibition),[5]; 100 µM,"55,0%"
"CN(C)C(=S)NN=Cc1ccccc1 [benzaldehyde 4,4'‐dimethyl thiosemicarbazone]",mitotic index / interference with cell division,[1]; respect to the control,lower mitotic index
same,A.I. (%) (aflatoxin accumulation inhibition),[5]; 50 µM,"76,0%"
same,A.I. (%) (aflatoxin accumulation inhibition),[5]; 100 µM,"90,0%"
same,mutagenicity in bacteria,[3],without showing any mutagenic effect
Bis(2-acetylfuranthiosemicarbazonato) copper(II) [2-acfurTS-Cu],G.I. (%) (A. flavus growth inhibition),[2]; 100 µM,"63,4%"
same,impact on fungal growth,"[2]; 10 to 100 µM, complexes compared with their ligand",higher fungistatic activity
same,viability,[6]; 0.5 µM,92.8 ± 5.53%
same,viability,[6]; 1 µM,99.4 ± 4.63%
same,viability,[6]; 5 µM,98.9 ± 12.1%
same,viability,[6]; 10 µM,100 ± 5.93%
same,viability,[6]; 50 µM,36.9 ± 6.49%
same,viability,[6]; 100 µM,35.6 ± 1.89%
same,GI50,[6],39 µM
same,A.I. (%) (aflatoxin accumulation inhibition),[5]; 100 µM,"65,7%"
Bis(2-acetylfuranthiosemicarbazonato) zinc(II) [2-acfurTS-Zn],impact on fungal growth compared with the ligand,[2]; 100 µM,slightly less effective
same,viability,[6]; 0.5 µM,100 ± 7.72%
same,viability,[6]; 1 µM,100 ± 7.88%
same,viability,[6]; 5 µM,100 ± 7.7%
same,viability,[6]; 10 µM,100 ± 12.7%
same,viability,[6]; 50 µM,16.5 ± 0.62%
same,viability,[6]; 100 µM,15.2 ± 0.73%
same,GI50,[6],30.5 µM
Bis(2-acetylthiophenethiosemicarbazonato) copper(II) [2-actpTS-Cu],viability,[6]; 0.5 µM,90.7 ± 4.69%
same,viability,[6]; 1 µM,87.1 ± 3.53%
same,viability,[6]; 5 µM,72.1 ± 3.35%
same,viability,[6]; 10 µM,16.2 ± 0.84%
same,viability,[6]; 50 µM,14.6 ± 0.85%
same,viability,[6]; 100 µM,15 ± 0.2%
same,GI50,[6],6.2 µM
same,A.I. (%) (aflatoxin accumulation inhibition),[5]; 50 µM,"56,5%"
same,A.I. (%) (aflatoxin accumulation inhibition),[5]; 100 µM,"88,6%"
Bis(2-acetylthiophenethiosemicarbazonato) zinc(II) [2-actpTS-Zn],viability,[6]; 0.5 µM,91.6 ± 7.33%
same,viability,[6]; 1 µM,94.3 ± 2.25%
same,viability,[6]; 5 µM,81.9 ± 5.34%
same,viability,[6]; 10 µM,60.1 ± 1.57%
same,viability,[6]; 50 µM,15.5 ± 0.56%
same,viability,[6]; 100 µM,16 ± 1.39%
same,GI50,[6],15.4 µM
same,A.I. (%) (aflatoxin accumulation inhibition),[5]; 50 µM,"60,4%"
same,A.I. (%) (aflatoxin accumulation inhibition),[5]; 100 µM,"85,4%"
Cu(II)undecanal bisthiosemicarbazonate,G.I. (%) (A. flavus growth inhibition),[2]; 50 µM,"60,4%"
same,G.I. (%) (A. flavus growth inhibition),[2]; 100 µM,"94,0%"
same,A.I. (%) (aflatoxin accumulation inhibition),[5]; 50 µM,"84,8%"
same,A.I. (%) (aflatoxin accumulation inhibition),[5]; 100 µM,"96,0%"
Mn(II) 2‐acetylthiophene bisthiosemicarbazonate,G.I. (%) (A. flavus growth inhibition),[2]; 100 µM,"53,0%"
same,A.I. (%) (aflatoxin accumulation inhibition),[5]; 50 µM,"61,0%"
same,A.I. (%) (aflatoxin accumulation inhibition),[5]; 100 µM,"92,0%"
Ni(II) Cinnamaldehyde bisthiosemicarbazonate,G.I. (%) (A. flavus growth inhibition),[2]; 50 µM,"87,9%"
same,G.I. (%) (A. flavus growth inhibition),[2]; 100 µM,100%
same,A.I. (%) (aflatoxin accumulation inhibition),[5]; 50 µM,"95,0%"
same,A.I. (%) (aflatoxin accumulation inhibition),[5]; 100 µM,100%
Ni(II) Cuminaldehyde bisthiosemicarbazonate,G.I. (%) (A. flavus growth inhibition),[2]; 50 µM,"84,0%"
same,G.I. (%) (A. flavus growth inhibition),[2]; 100 µM,"90,0%"
same,A.I. (%) (aflatoxin accumulation inhibition),[5]; 50 µM,"91,5%"
same,A.I. (%) (aflatoxin accumulation inhibition),[5]; 100 µM,"96,0%"
Ni(II) citronellal bisthiosemicarbazonate,G.I. (%) (A. flavus growth inhibition),[2]; 100 µM,"58,9%"
same,A.I. (%) (aflatoxin accumulation inhibition),[5]; 100 µM,"82,1%"
Plumbagin thiosemicarbazone,G.I. (%) (A. flavus growth inhibition),[2]; 100 µM,"61,9%"
same,A.I. (%) (aflatoxin accumulation inhibition),[5]; 100 µM,"83,0%"
Zn(II) Cinnamaldehyde bisthiosemicarbazonate,G.I. (%) (A. flavus growth inhibition),[2]; 50 µM,"56,0%"
same,G.I. (%) (A. flavus growth inhibition),[2]; 100 µM,"76,0%"
same,A.I. (%) (aflatoxin accumulation inhibition),[5]; 50 µM,"99,0%"
same,A.I. (%) (aflatoxin accumulation inhibition),[5]; 100 µM,100%
Zn(II) Cuminaldehyde bisthiosemicarbazonate,G.I. (%) (A. flavus growth inhibition),[2]; 50 µM,"56,0%"
same,G.I. (%) (A. flavus growth inhibition),[2]; 100 µM,"60,3%"
same,A.I. (%) (aflatoxin accumulation inhibition),[5]; 50 µM,"97,1%"
same,A.I. (%) (aflatoxin accumulation inhibition),[5]; 100 µM,100%

# From PMC8123576 (International Journal of Molecular Sciences, 2021)
